# Measurements as given in PMC5218480 (PLoS ONE, 2017).
# Tested on: MV-4-11 cells
# Assay: Gene expression microarray analysis (Affymetrix PrimeView) and GSEA
# Format: cell-based, human
# Design: RFU PODN (11730768_x_at) / Fold change /veh PODN (11730768_x_at) / RFU LINC00158 (11744669_a_at) / Fold change /veh LINC00158 (11744669_a_at) / RFU DUSP10 (11751237_a_at) / Fold change /veh DUSP10 (11751237_a_at) / RFU ID3 (11757404_x_at) / Fold change /veh ID3 (11757404_x_at) / RFU PLEKHG5 (11737974_s_at) / Fold change /veh PLEKHG5 (11737974_s_at) / RFU LRRC4B (11730491_at) / Fold change /veh LRRC4B (11730491_at) / RFU GIMAP4 (11747438_a_at) / Fold change /veh GIMAP4 (11747438_a_at) / RFU KRT8 (11758183_x_at) / Fold change /veh KRT8 (11758183_x_at) / RFU CNN1 (11734310_a_at) / Fold change /veh CNN1 (11734310_a_at) / RFU VPS37D (11726825_at) / Fold change /veh VPS37D (11726825_at) / RFU C10orf10 (11716522_x_at) / Fold change /veh C10orf10 (11716522_x_at) / RFU KIR2DL2 /// KIR2DL4 /// KIR2DL5A /// KIR2DL5B /// KIR2DS1 /// KIR2DS2 /// KIR2DS3 /// KIR2DS4 /// KIR3DL3 /// KIR3DL3 /// KIR3DS1 (11738374_at) / Fold change /veh KIR2DL2 /// KIR2DL4 /// KIR2DL5A /// KIR2DL5B /// KIR2DS1 /// KIR2DS2 /// KIR2DS3 /// KIR2DS4 /// KIR3DL3 /// KIR3DL3 /// KIR3DS1 (11738374_at) / RFU C1QL1 (11718748_at) / Fold change /veh C1QL1 (11718748_at) / RFU TMPRSS4 (11747572_a_at) / Fold change /veh TMPRSS4 (11747572_a_at) / RFU HAMP (11756126_x_at) / Fold change /veh HAMP (11756126_x_at) / RFU RNFT2 (11725882_a_at) / Fold change /veh RNFT2 (11725882_a_at) / RFU NR4A2 (11747474_a_at) / Fold change /veh NR4A2 (11747474_a_at) / RFU ABCC12 (11746883_a_at) / Fold change /veh ABCC12 (11746883_a_at) / RFU TMEM136 (11760407_x_at) / Fold change /veh TMEM136 (11760407_x_at) / RFU CLDN22 /// WWC2 (11732394_at) / Fold change /veh CLDN22 /// WWC2 (11732394_at) / RFU HLA-DPB1 (11760878_x_at) / Fold change /veh HLA-DPB1 (11760878_x_at) / RFU SPINT1 (11716480_a_at) / Fold change /veh SPINT1 (11716480_a_at) / RFU GAP43 (11754022_s_at) / Fold change /veh GAP43 (11754022_s_at) / RFU A4GNT (11735810_at) / Fold change /veh A4GNT (11735810_at) / RFU PRB3 (11715151_x_at) / Fold change /veh PRB3 (11715151_x_at) / RFU TUBB4B (11761932_at) / Fold change /veh TUBB4B (11761932_at) / RFU CAPN14 (11732068_a_at) / Fold change /veh CAPN14 (11732068_a_at) / RFU TMCC2 (11721928_a_at) / Fold change /veh TMCC2 (11721928_a_at) / RFU IRGQ (11745062_a_at) / Fold change /veh IRGQ (11745062_a_at) / RFU FAM174B (11720279_a_at) / Fold change /veh FAM174B (11720279_a_at) / RFU TMPRSS4 (11748680_a_at) / Fold change /veh TMPRSS4 (11748680_a_at) / RFU FAM212B (11763350_a_at) / Fold change /veh FAM212B (11763350_a_at) / RFU PLEKHG5 (11743358_a_at) / Fold change /veh PLEKHG5 (11743358_a_at) / RFU ZSCAN30 (11745921_a_at) / Fold change /veh ZSCAN30 (11745921_a_at) / RFU CMKLR1 (11741424_a_at) / Fold change /veh CMKLR1 (11741424_a_at) / RFU LOC101060620 /// MAPK8IP1 (11723275_at) / Fold change /veh LOC101060620 /// MAPK8IP1 (11723275_at) / RFU SPTSSB (11747773_x_at) / Fold change /veh SPTSSB (11747773_x_at) / RFU PRSS12 (11739890_at) / Fold change /veh PRSS12 (11739890_at) / RFU BIN1 (11741810_x_at) / Fold change /veh BIN1 (11741810_x_at) / RFU WNT11 (11732464_a_at) / Fold change /veh WNT11 (11732464_a_at) / RFU C10orf10 (11716521_a_at) / Fold change /veh C10orf10 (11716521_a_at) / RFU C5orf56 (11738089_at) / Fold change /veh C5orf56 (11738089_at) / RFU CYB561 (11721691_x_at) / Fold change /veh CYB561 (11721691_x_at) / RFU ANKRD19P (11752326_a_at) / Fold change /veh ANKRD19P (11752326_a_at) / RFU OR2T12 /// OR2T33 /// OR2T8 (11738714_s_at) / Fold change /veh OR2T12 /// OR2T33 /// OR2T8 (11738714_s_at) / RFU VCAN (11748164_a_at) / Fold change /veh VCAN (11748164_a_at) / RFU JSRP1 (11732532_at) / Fold change /veh JSRP1 (11732532_at) / RFU KRTAP10-11 (11738290_x_at) / Fold change /veh KRTAP10-11 (11738290_x_at) / RFU MYO3A (11730013_a_at) / Fold change /veh MYO3A (11730013_a_at) / RFU EBF3 (11725865_a_at) / Fold change /veh EBF3 (11725865_a_at) / RFU CAMK2N1 (11719241_x_at) / Fold change /veh CAMK2N1 (11719241_x_at) / RFU C5orf56 (11738088_a_at) / Fold change /veh C5orf56 (11738088_a_at) / RFU OLFML3 (11715873_a_at) / Fold change /veh OLFML3 (11715873_a_at) / RFU LOC100653217 /// NTM (11731650_a_at) / Fold change /veh LOC100653217 /// NTM (11731650_a_at) / RFU MAPK11 (11762145_a_at) / Fold change /veh MAPK11 (11762145_a_at) / RFU FIZ1 (11724087_x_at) / Fold change /veh FIZ1 (11724087_x_at) / RFU OASL (11726364_x_at) / Fold change /veh OASL (11726364_x_at) / RFU SOX15 (11748057_x_at) / Fold change /veh SOX15 (11748057_x_at) / RFU CD79A (11719716_a_at) / Fold change /veh CD79A (11719716_a_at) / RFU HIST1H1D (11736915_at) / Fold change /veh HIST1H1D (11736915_at) / RFU CASKIN2 (11723855_a_at) / Fold change /veh CASKIN2 (11723855_a_at) / RFU LOC730098 (11760151_x_at) / Fold change /veh LOC730098 (11760151_x_at) / RFU OR4N2 (11742367_at) / Fold change /veh OR4N2 (11742367_at) / RFU PRRT2 (11749266_a_at) / Fold change /veh PRRT2 (11749266_a_at) / RFU SNX32 (11753110_a_at) / Fold change /veh SNX32 (11753110_a_at) / RFU CDHR5 (11726645_a_at) / Fold change /veh CDHR5 (11726645_a_at) / RFU RCAN1 (11760418_a_at) / Fold change /veh RCAN1 (11760418_a_at) / RFU FAM167A (11723789_a_at) / Fold change /veh FAM167A (11723789_a_at) / RFU FAM26E (11764081_at) / Fold change /veh FAM26E (11764081_at) / RFU ISYNA1 (11749810_s_at) / Fold change /veh ISYNA1 (11749810_s_at) / RFU ACY1 (11761880_at) / Fold change /veh ACY1 (11761880_at) / RFU 11764098_at / Fold change /veh 11764098_at / RFU SAMD14 (11745864_x_at) / Fold change /veh SAMD14 (11745864_x_at) / RFU NPB (11741838_a_at) / Fold change /veh NPB (11741838_a_at) / RFU TMPRSS6 (11731388_a_at) / Fold change /veh TMPRSS6 (11731388_a_at) / RFU KRTAP10-2 (11738614_at) / Fold change /veh KRTAP10-2 (11738614_at) / RFU ARHGAP8 /// PRR5-ARHGAP8 (11727945_x_at) / Fold change /veh ARHGAP8 /// PRR5-ARHGAP8 (11727945_x_at) / RFU KRTAP5-7 /// NADSYN1 (11734609_at) / Fold change /veh KRTAP5-7 /// NADSYN1 (11734609_at) / RFU RASL12 (11751679_a_at) / Fold change /veh RASL12 (11751679_a_at) / RFU CDKN2B (11736163_a_at) / Fold change /veh CDKN2B (11736163_a_at) / RFU PRF1 (11729649_at) / Fold change /veh PRF1 (11729649_at) / RFU, ZNF638 /// ZNF638-IT1 / Fold change vs veh, ZNF638 /// ZNF638-IT1 / RFU, PANK3 / Fold change vs veh, PANK3 / RFU, SH3YL1 / Fold change vs veh, SH3YL1 / RFU, ZEB2 / Fold change vs veh, ZEB2 / RFU, NRIP1 / Fold change vs veh, NRIP1 / RFU, PTTG1IP / Fold change vs veh, PTTG1IP / RFU, CAPN2 / Fold change vs veh, CAPN2 / RFU, MED14 / Fold change vs veh, MED14 / RFU, SNORA58 / Fold change vs veh, SNORA58 / RFU, C1orf63 / Fold change vs veh, C1orf63 / RFU, LRRFIP1 / Fold change vs veh, LRRFIP1 / RFU, NDUFAF7 / Fold change vs veh, NDUFAF7 / RFU, SLC12A2 / Fold change vs veh, SLC12A2 / RFU, IBTK / Fold change vs veh, IBTK / RFU, ESF1 / Fold change vs veh, ESF1 / Fold change vs veh, TMEM50B / RFU, TAOK1 / Fold change vs veh, TAOK1 / RFU, ACBD3 / Fold change vs veh, ACBD3 / RFU, TMA16 / Fold change vs veh, TMA16 / RFU, RWDD3 / Fold change vs veh, RWDD3 / RFU, BCAT1 / Fold change vs veh, BCAT1 / RFU, EDEM3 / Fold change vs veh, EDEM3 / RFU, TMEM33 / Fold change vs veh, TMEM33 / RFU, WDR75 / Fold change vs veh, WDR75 / RFU, AHCTF1 / Fold change vs veh, AHCTF1 / RFU, TFRC / Fold change vs veh, TFRC / RFU, ZDHHC17 / Fold change vs veh, ZDHHC17 / RFU, NOM1 / Fold change vs veh, NOM1 / RFU, ARL8B / Fold change vs veh, ARL8B / RFU, ZBTB11 / Fold change vs veh, ZBTB11 / RFU, TAMM41 / Fold change vs veh, TAMM41 / RFU, KIAA1704 /// LOC100996395 / Fold change vs veh, KIAA1704 /// LOC100996395 / RFU, ING1 / Fold change vs veh, ING1 / RFU, TRMT61B / Fold change vs veh, TRMT61B / RFU, FUBP3 / Fold change vs veh, FUBP3 / RFU, TP53 / Fold change vs veh, TP53 / RFU, TNKS2 / Fold change vs veh, TNKS2 / RFU, ZFP14 / Fold change vs veh, ZFP14 / RFU, ACTR2 / Fold change vs veh, ACTR2 / RFU, PPP3R1 / Fold change vs veh, PPP3R1 / RFU, PIK3R1 / Fold change vs veh, PIK3R1 / RFU, HNRNPA1 / Fold change vs veh, HNRNPA1 / RFU, RNF170 / Fold change vs veh, RNF170 / RFU, ZNF28 / Fold change vs veh, ZNF28 / RFU, RNGTT / Fold change vs veh, RNGTT / RFU, OGT / Fold change vs veh, OGT / RFU, BRD1 / Fold change vs veh, BRD1 / RFU, MARS / Fold change vs veh, MARS / RFU, ZNF655 / Fold change vs veh, ZNF655 / RFU, FAHD1 / Fold change vs veh, FAHD1 / RFU, BDP1 / Fold change vs veh, BDP1 / RFU, LRRCC1 / Fold change vs veh, LRRCC1 / RFU, ARID1A / Fold change vs veh, ARID1A / RFU, ZNF146 / Fold change vs veh, ZNF146 / RFU, ZNF330 / Fold change vs veh, ZNF330 / RFU, GPN3 / Fold change vs veh, GPN3 / RFU, C9orf123 / Fold change vs veh, C9orf123 / RFU, N4BP2L2 / Fold change vs veh, N4BP2L2 / RFU, ARFIP1 / Fold change vs veh, ARFIP1 / RFU, FAM179B / Fold change vs veh, FAM179B / RFU, BCL10 / Fold change vs veh, BCL10 / RFU, UHRF1BP1L / Fold change vs veh, UHRF1BP1L / RFU, BET1 / Fold change vs veh, BET1 / RFU, CNOT2 / Fold change vs veh, CNOT2 / RFU, ZNF268 / Fold change vs veh, ZNF268 / Fold change vs veh, ZNF507 / RFU, DGCR2 / Fold change vs veh, DGCR2 / RFU, WDSUB1 / Fold change vs veh, WDSUB1 / Fold change vs veh, HSP90B1 /// MIR3652 / RFU, ADSS / Fold change vs veh, ADSS / RFU, GK / Fold change vs veh, GK / RFU, ZNF148 / Fold change vs veh, ZNF148 / RFU, TAF9 / Fold change vs veh, TAF9 / RFU, SLC1A5 / Fold change vs veh, SLC1A5 / RFU, SLMO2 / Fold change vs veh, SLMO2 / RFU, ABCC4 / Fold change vs veh, ABCC4 / RFU, LOC101060439 /// RAP1B / Fold change vs veh, LOC101060439 /// RAP1B / RFU, RFX7 / Fold change vs veh, RFX7 / RFU, GTPBP10 / Fold change vs veh, GTPBP10 / RFU, CNEP1R1 / Fold change vs veh, CNEP1R1 / RFU, BIVM-ERCC5 /// ERCC5 / Fold change vs veh, BIVM-ERCC5 /// ERCC5 / RFU, ILF3 / Fold change vs veh, ILF3 / RFU 11762660_at / Fold change /veh 11762660_at / RFU VCAN (11757783_s_at) / Fold change /veh VCAN (11757783_s_at) / RFU DDX43 (11728927_at) / Fold change /veh DDX43 (11728927_at) / RFU KRT8 (11758188_x_at) / Fold change /veh KRT8 (11758188_x_at) / RFU NKD1 (11759106_at) / Fold change /veh NKD1 (11759106_at) / RFU SRD5A1 (11742802_a_at) / Fold change /veh SRD5A1 (11742802_a_at) / RFU TPSAB1 /// TPSB2 (11721975_s_at) / Fold change /veh TPSAB1 /// TPSB2 (11721975_s_at) / RFU GSTM3 (11746129_a_at) / Fold change /veh GSTM3 (11746129_a_at) / RFU IL23R (11737362_x_at) / Fold change /veh IL23R (11737362_x_at) / RFU TMEM51 (11727254_a_at) / Fold change /veh TMEM51 (11727254_a_at) / RFU PIWIL2 (11732686_x_at) / Fold change /veh PIWIL2 (11732686_x_at) / RFU ORM1 (11744905_x_at) / Fold change /veh ORM1 (11744905_x_at) / RFU CCDC152 (11743942_at) / Fold change /veh CCDC152 (11743942_at) / RFU ECM1 (11717891_a_at) / Fold change /veh ECM1 (11717891_a_at) / RFU IL23R (11748794_a_at) / Fold change /veh IL23R (11748794_a_at) / RFU TNFAIP8L3 (11732012_x_at) / Fold change /veh TNFAIP8L3 (11732012_x_at) / RFU MBOAT4 (11741988_at) / Fold change /veh MBOAT4 (11741988_at) / RFU 11764193_at / Fold change /veh 11764193_at / RFU TMEM53 (11763286_at) / Fold change /veh TMEM53 (11763286_at) / RFU MAGEB2 (11727129_at) / Fold change /veh MAGEB2 (11727129_at) / RFU TMEM200A (11744735_a_at) / Fold change /veh TMEM200A (11744735_a_at) / RFU CCDC152 (11751479_a_at) / Fold change /veh CCDC152 (11751479_a_at) / RFU FAM211A (11726209_a_at) / Fold change /veh FAM211A (11726209_a_at) / RFU RGS16 (11746705_a_at) / Fold change /veh RGS16 (11746705_a_at) / RFU VCAN (11755009_s_at) / Fold change /veh VCAN (11755009_s_at) / RFU RHOB (11743442_s_at) / Fold change /veh RHOB (11743442_s_at) / RFU RGS16 (11720943_a_at) / Fold change /veh RGS16 (11720943_a_at) / RFU RGS16 (11720944_at) / Fold change /veh RGS16 (11720944_at) / RFU, VPS4B / Fold change vs veh, VPS4B / RFU, CREB1 / Fold change vs veh, CREB1 / RFU, DNAJC13 / Fold change vs veh, DNAJC13 / RFU, GNAQ / Fold change vs veh, GNAQ / RFU, CDK5R1 / Fold change vs veh, CDK5R1 / RFU, ZRANB3 / Fold change vs veh, ZRANB3 / RFU, CUL4A / Fold change vs veh, CUL4A / RFU, CCNY / Fold change vs veh, CCNY / RFU, UFL1 / Fold change vs veh, UFL1 / RFU, COG3 / Fold change vs veh, COG3 / RFU, DIAPH2 / Fold change vs veh, DIAPH2 / RFU, SKA2 / Fold change vs veh, SKA2 / RFU, AFF3 / Fold change vs veh, AFF3 / RFU, LMF1 / Fold change vs veh, LMF1 / RFU, IPO11 / Fold change vs veh, IPO11 / RFU, DFFB / Fold change vs veh, DFFB / RFU, FOXP1 / Fold change vs veh, FOXP1 / RFU, CARD8 / Fold change vs veh, CARD8 / RFU, STRN3 / Fold change vs veh, STRN3 / RFU, ADK / Fold change vs veh, ADK / RFU, RASSF2 / Fold change vs veh, RASSF2 / RFU, WIPF1 / Fold change vs veh, WIPF1 / RFU, LARP1B / Fold change vs veh, LARP1B / RFU, RASA1 / Fold change vs veh, RASA1 / RFU, RB1 / Fold change vs veh, RB1 / RFU, PPFIA1 / Fold change vs veh, PPFIA1 / RFU, MAT2A / Fold change vs veh, MAT2A / RFU, CCT5 / Fold change vs veh, CCT5 / RFU, WDR92 / Fold change vs veh, WDR92 / RFU, CUX1 / Fold change vs veh, CUX1 / RFU, TTC7A / Fold change vs veh, TTC7A / RFU, TMEM135 / Fold change vs veh, TMEM135 / RFU, DEPTOR / Fold change vs veh, DEPTOR / RFU, CPM / Fold change vs veh, CPM / RFU, DNAJB6 / Fold change vs veh, DNAJB6 / RFU, CACNA2D3 / Fold change vs veh, CACNA2D3 / RFU, DTX4 / Fold change vs veh, DTX4 / RFU, TFCP2 / Fold change vs veh, TFCP2 / RFU, GMCL1 /// GMCL1P1 / Fold change vs veh, GMCL1 /// GMCL1P1 / RFU, AEBP2 / Fold change vs veh, AEBP2 / RFU, SNHG1 /// SNORD22 /// SNORD25 /// SNORD26 /// SNORD27 /// SNORD28 /// SNORD29 /// SNORD31 / Fold change vs veh, SNHG1 /// SNORD22 /// SNORD25 /// SNORD26 /// SNORD27 /// SNORD28 /// SNORD29 /// SNORD31 / Fold change (Aza/veh), C12orf56 (ProbeSet 11735607_a_at) / Fold change (ACY-1035/veh), C12orf56 (ProbeSet 11735607_a_at) / Fold change (Aza/veh), FGFR1OP (ProbeSet 11751329_s_at) / Fold change (ACY-1035/veh), FGFR1OP (ProbeSet 11751329_s_at) / Fold change (Aza/veh), VPS36 (ProbeSet 11739960_a_at) / Fold change (ACY-1035/veh), VPS36 (ProbeSet 11739960_a_at) / RFU SYPL1 (11715823_x_at) / Fold change /veh SYPL1 (11715823_x_at) / RFU IGFBP7 (11715501_s_at) / Fold change /veh IGFBP7 (11715501_s_at) / RFU REEP3 (11722064_at) / Fold change /veh REEP3 (11722064_at) / RFU IGLL1 (11728026_x_at) / Fold change /veh IGLL1 (11728026_x_at): dose or concentration left out as unconfirmed
# Conditions: ProbeSet 11725885_a_at; LIST B
structure (smiles),measurement,value
Nc1ccc(-c2cccs2)cc1NC(=O)c1ccc2c(c1)cc(C1CC1)n2CCN1CCOCC1 [ACY-1035],"Fold change vs veh, CNEP1R1",1.08
